Experimental data published in patent US20060122150A1, “Pharmaceutical composition and method for treating a joint-capsule arthropathy” (priority 2004, published 2006).
pIC50: −log10 of the molar value.

Assays:
COX-2 = molecular target: T1, COX-2 (Homo sapiens, UniProt P35354); experiment: In vitro efficacy: inhibitor of COX-2; assay type: biochemical
T1 sequence (P35354 18-604): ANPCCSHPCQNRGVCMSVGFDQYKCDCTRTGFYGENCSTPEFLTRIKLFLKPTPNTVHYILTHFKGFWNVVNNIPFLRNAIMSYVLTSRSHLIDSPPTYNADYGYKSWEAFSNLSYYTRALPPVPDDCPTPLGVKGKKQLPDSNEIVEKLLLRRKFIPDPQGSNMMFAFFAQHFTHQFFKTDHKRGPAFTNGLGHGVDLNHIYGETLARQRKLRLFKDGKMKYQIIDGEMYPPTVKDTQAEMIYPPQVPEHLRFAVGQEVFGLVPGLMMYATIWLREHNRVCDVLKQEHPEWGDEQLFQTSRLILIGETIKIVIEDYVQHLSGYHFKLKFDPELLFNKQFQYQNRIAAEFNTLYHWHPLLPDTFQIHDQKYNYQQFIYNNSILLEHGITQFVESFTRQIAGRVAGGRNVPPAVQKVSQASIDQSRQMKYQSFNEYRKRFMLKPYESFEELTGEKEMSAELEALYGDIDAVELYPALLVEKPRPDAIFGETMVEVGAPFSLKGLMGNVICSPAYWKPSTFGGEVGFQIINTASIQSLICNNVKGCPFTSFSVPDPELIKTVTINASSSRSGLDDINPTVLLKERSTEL

5LO-1 = molecular target: T2, 5LO-1 (Homo sapiens, UniProt P09917); experiment: In vitro efficacy: inhibitor of 5LO-1; assay type: biochemical
T2 sequence (P09917 1-674): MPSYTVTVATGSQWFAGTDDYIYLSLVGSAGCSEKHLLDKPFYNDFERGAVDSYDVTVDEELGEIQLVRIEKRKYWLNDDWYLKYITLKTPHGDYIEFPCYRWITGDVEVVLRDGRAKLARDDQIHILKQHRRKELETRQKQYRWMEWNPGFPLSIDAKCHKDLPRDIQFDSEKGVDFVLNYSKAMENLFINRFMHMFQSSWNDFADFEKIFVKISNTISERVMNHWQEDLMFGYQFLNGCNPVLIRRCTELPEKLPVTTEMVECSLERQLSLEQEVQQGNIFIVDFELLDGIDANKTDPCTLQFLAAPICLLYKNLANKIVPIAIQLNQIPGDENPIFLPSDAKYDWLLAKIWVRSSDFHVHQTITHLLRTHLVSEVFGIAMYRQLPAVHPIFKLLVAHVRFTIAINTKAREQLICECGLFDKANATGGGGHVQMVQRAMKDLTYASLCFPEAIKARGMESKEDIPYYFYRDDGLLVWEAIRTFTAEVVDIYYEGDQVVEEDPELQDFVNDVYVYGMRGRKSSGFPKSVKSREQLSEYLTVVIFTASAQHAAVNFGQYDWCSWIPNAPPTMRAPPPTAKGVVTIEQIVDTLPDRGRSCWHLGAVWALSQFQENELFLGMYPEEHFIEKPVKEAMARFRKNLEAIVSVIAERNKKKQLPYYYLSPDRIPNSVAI

[1] = test system: Rabbit Anterior Cruciate Ligament Transection (ACLT) Model; experiment: Rabbit ACLT osteoarthritis model, NSAID dispersed in HA (Example 4); assay type: in vivo, New Zealand White Rabbits; conditions: intra-articular 160 μL once per week for 5 weeks
Description: Osteoarthritis is a degenerative disease that degrades cartilage, resulting in pain, restriction of motion and deformity. In the ACLT model, the appearance of OA can be seen at 6 weeks and is characterized by erosion of cartilage on the trochlear grove and mild to serious cartilage erosion on the femoral condyle. The last symptoms to arise are on the tibial plateau. At 6 weeks, there is some damage visible on the tibial plateau, but the damage may not be great given the length of the study. […] While osteophyte formation is a factor in the analysis, several parameters are observed, wherein each parameter alone is not sufficient to draw a conclusion. Therefore, the composite score provides a more meaningful result for a particular agent tested.
The ACLT model was used to evaluate the ability of a NSAID agent in a pharmaceutical formulation administered directly into the intra-articular capsule of the knee to reduce the incidence of osteoarthritic changes. The NSAIDs formulations prepared in Example 2 were used and injected 6 weeks after animal preparation. A commercially available form of purified HA was used as the vehicle control. The animals (n=7 per group) were dosed (160 μL per injection) once per week for 5 weeks.
Female New Zealand White Rabbits (n=84, Milibrook Breeding Labs, SPF) used in the study underwent ACLT on the right knee.
One week after the last injection (total 12 weeks from time of ACLT), animals were euthanized and gross observations were made on the knee joints. Histological sectioning and staining were performed on the condyles.
The joints were analyzed for disease state in the trochlear groove, the femoral condyles and the tibial plateau. Pathological assessments were performed on the sectioned tissue. Condylar structure, cellularity, presence of GAG (glycosaminoglycans) and presence of cartilage were evaluated.
On the anterior surface of the femur (trochlear groove), the number of osteophytes, the size (diameter) of osteophytes, the presence of trochlear groove thickening and the erosion of cartilage were evaluated grossly.
On the femoral condyles, the erosion of cartilage (% surface area) (both medial and lateral condyle), the erosion of cartilage (depth) and the presence of clefts were evaluated grossly.
On the tibial plateau, observations on the thickening, presence of clefts and erosion were made.
Each parameter was given a score. The combination of all parameters gave a Total Score. A higher score indicates more damage to the joint. The data for un-operated joints (no surgery) has been included as a baseline for a normal joint.

COX-1 = COX-1 (Homo sapiens, UniProt P23219); experiment: In vitro efficacy: inhibitor of COX-1; assay type: biochemical
Sequence of COX-1 (P23219 24-599): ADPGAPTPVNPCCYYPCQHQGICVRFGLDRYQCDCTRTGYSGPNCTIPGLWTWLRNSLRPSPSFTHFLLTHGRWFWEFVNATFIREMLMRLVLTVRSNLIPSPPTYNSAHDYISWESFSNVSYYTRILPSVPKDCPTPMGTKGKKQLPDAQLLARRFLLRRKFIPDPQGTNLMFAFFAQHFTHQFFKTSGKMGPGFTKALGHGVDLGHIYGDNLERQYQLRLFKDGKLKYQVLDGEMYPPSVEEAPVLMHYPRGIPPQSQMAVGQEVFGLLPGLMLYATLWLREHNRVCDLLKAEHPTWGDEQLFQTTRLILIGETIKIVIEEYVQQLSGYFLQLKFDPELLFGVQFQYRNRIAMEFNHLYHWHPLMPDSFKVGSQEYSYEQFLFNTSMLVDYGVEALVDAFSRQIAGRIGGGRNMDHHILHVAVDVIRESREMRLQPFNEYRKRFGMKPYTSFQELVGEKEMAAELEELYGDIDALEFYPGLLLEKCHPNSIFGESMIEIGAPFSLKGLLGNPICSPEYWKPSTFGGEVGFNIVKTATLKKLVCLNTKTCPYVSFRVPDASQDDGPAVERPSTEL

LTB4 = experiment: In vitro efficacy: inhibitor of LTB4; assay type: biochemical
TXB2 = experiment: In vitro efficacy: inhibitor of TXB2; assay type: biochemical

pIC50 (COX-2) | pIC50 (5LO-1) | pIC50 (COX-1) | Compound | All Trochlear Groove Effects composite score ([1]; high dose) | Trochlear Groove (Erosion of Cartilage) grade ([1]; high dose) | Medial Femoral Condyle (% Surface Area Erosion) score ([1]; low dose) | All Cartilage Effects composite score ([1]; mid dose) | All Tibial Plateau Effects composite score ([1]; mid dose) | Lateral Femoral Condyle (% Surface Area Erosion) score ([1]; mid dose) | Medial Femoral Condyle (% Surface Area Erosion) score ([1]; mid dose) | Total Score (composite of all scoring criteria) ([1]; mid dose) | All Cartilage Effects composite score ([1]; high dose) | Total Score (composite of all scoring criteria) ([1]; high dose) | other results
7.30 | 7.52 | 5.52 | Cc1ccc(C(=O)c2ccc(CC(=O)O)n2C)cc1 [Tolmetin] | lower mean scores than Vehicle and No Injection treated groups | numerically lower than the Vehicle control and No Injection treated groups | average numerical scores less than Vehicle and No Injection treated groups | lower mean scores than the No Injection treated group | lower average scores than the No Injection treated group | average numerical scores less than Vehicle and No Injection treated groups | average numerical scores less than Vehicle and No Injection treated groups | numerically less average scores than the No Injection treated group |  |  | Femoral Condyle (Depth of Erosion) score ([1]; high dose): the same average score as the No Injection group
6.00 | 5.52 | 7.22 | CC(C(=O)O)c1ccc(C(=O)c2cccs2)cc1 (stereo not drawn) [Suprofen] |  |  | the same average score as No Injection but scored better than Vehicle | lower mean scores than the No Injection treated group | lower average scores than the No Injection treated group | average numerical scores less than Vehicle and No Injection treated groups | average numerical scores less than Vehicle and No Injection treated groups | numerically less average scores than the No Injection treated group | lower mean scores than the No Injection treated group | numerically less average scores than the No Injection treated group | All Trochlear Groove Effects composite score ([1]; all dose groups): lower mean scores than Vehicle and No Injection treated groups; Trochlear Groove (Erosion of Cartilage) grade ([1]; all dose levels): numerically lower than the Vehicle control and No Injection treated groups; Lateral Femoral Condyle (% Surface Area Erosion) score ([1]; high dose): average numerical scores less than Vehicle and No Injection treated groups
5.70 | 6.77 | 6.01 | COc1ccc(-n2nc(CCC(=O)N(C)O)cc2-c2ccc(Cl)cc2)cc1 [Tepoxalin] | lower mean scores than Vehicle and No Injection treated groups | numerically lower than the Vehicle control and No Injection treated groups |  | lower mean scores than the No Injection treated group |  | average numerical scores less than Vehicle and No Injection treated groups |  |  | lower mean scores than the No Injection treated group | numerically less average scores than the No Injection treated group | pIC50 (LTB4): 7.40; pIC50 (TXB2): 8.70; Medial Femoral Condyle (% Surface Area Erosion) score ([1]; all dose groups): average numerical scores less than Vehicle and No Injection treated groups; Total Score (composite of all scoring criteria) ([1]; low dose): numerically less average scores than the No Injection treated group
